Test results from patent US10307398B2, “Resuscitation composition and methods of making and using” (Regents of the University of Minnesota, priority 2016, dated 2019).
In brackets after ≈: the same amount, converted by molar mass. Several values for one entry are separate records, joined by “and”; a condition that tells them apart may be missing. Identical values can stand only once. One block for each molecule: values may come before it.

What was measured:
[1] = solubility of melatonin in excipient solutions; format: physicochemical; details: aqueous with cosolvent or surfactant or cyclodextrin, thermodynamic from solid
Method: A saturated melatonin solution was prepared containing the indicated excipient concentrations and incubated end over end at room temperature for 72 hours. After 72 hours, solutions were filtered through a […] filter and diluted 1:10. Absorption was measured spectrophotometrically at 287 nm (excipient solutions alone were used as blanks).

physchem = assay: physchem
Method: Assuming formation of 1:1 complex between drug and ligand, the complexation efficiency (CE) can be calculated from the slope of the phase-solubility diagram:
[formula] where So is the intrinsic substrate solubility and k1:1 stability constant of the complex.
Solubility Studies. […] An excess amount of MLT was added either to water or PVP solution (concentration ranging from 0.1 to 20% w/v) in polypropylene tubes (protected from light) and incubated with end-over-end rotation at 25° C. until equilibrium was achieved (72 hours). An aliquot was filtered (0.45 μm membrane) and the absorption measured at 270 nm (Epoch microplate spectrophotometer, BioTek, Winooski, Vt.).
PVP is known to form water soluble or insoluble complexes with various drugs with either enhancement or reduction in solubility.

[2] = water vapor sorption of BHB; format: physicochemical; details: 25° C.
Method: Water vapor sorption. About 5 mg of sample was placed in the quartz sample pan of an automated vapor sorption balance (DVS-1000, Surface Measurement Systems, London, UK), maintained at 25° C. It was dried under dry nitrogen purge (flow rate 200 mL/min) to constant weight. Equilibrium was assumed to have been achieved if the mass change was <0.001% over 30 min. […] Equilibrium was assumed to have been achieved if the mass change was <0.005% over 30 min. The microbalance was calibrated periodically using a 100 mg standard weight.
In order to gain a deeper understanding into the water-BHB interaction, the ‘as is’ BHB was heated in the TGA up to 120° C., cooled to RT and transferred to the sample chamber of the water sorption analyzer. The other relevant details are provided in the Experimental section. There was no water sorption up to 15% RH and then the sample gained ˜3% water at 20% RH (FIG. 10). This is in excellent agreement with the water content in ‘as is’ BHB. […] However, under the experimental conditions in the water sorption analyzer (maximum dwell time of 360 minutes at any RH), equilibrium was not attained. Therefore, when the RH was further increased to 55%, a pronounced weight increase again was observed. […] There were two RH ranges, (0-20% and 35-55%) where hysteresis was observed.

[3] = cited from earlier work

solubility at 72 h ([1]; 10% HPbCD/5% PEG400/5% PVP K12 solution, in 10% HPbCD/5% PEG400/5% PVP K12, room temperature): > 43000 µM and > 10000 µg/mL | solubility at 72 h ([1]; 20% PVP solution, in 20% PVP, room temperature): > 43000 µM and > 10000 µg/mL | molar ratio of total drug to free drug (physchem): 1.17 | slope of the phase solubility diagram (physchem): 0.030 | solubility thermodynamic at 72 h (physchem; 25 °C, water, thermodynamic from solid): ~8 mM (≈ 1860 µg/mL)
Compound: COc1ccc2[nH]cc(CCNC(C)=O)c2c1 [melatonin, 5-methoxy-N-acetyltryptamine]

water gain (water sorption) ([2]; at 20% RH, BHB previously heated to 120° C.): ~3% | increase in weight (water sorption, deliquescence) ([2]; at 50% RH): ~40%
Compound: C[C@@H](O)CC(=O)O [BHB, D-β-hydroxybutyrate]

Compound: CC(O)COC[C@H]1O[C@@H]2O[C@H]3[C@H](O)[C@@H](O)[C@@H](O[C@H]4[C@H](O)[C@@H](O)[C@@H](O[C@H]5[C@H](O)[C@@H](O)[C@@H](O[C@H]6[C@H](O)[C@@H](O)[C@@H](O[C@H]7[C@H](O)[C@@H](O)[C@@H](O[C@H]8[C@H](O)[C@@H](O)[C@@H](O[C@H]1[C@H](O)[C@H]2O)O[C@@H]8COCC(C)O)O[C@@H]7COCC(C)O)O[C@@H]6COCC(C)O)O[C@@H]5COCC(C)O)O[C@@H]4COCC(C)O)O[C@@H]3COCC(C)O (stereo partly drawn) [HPbCD, Hydroxypropyl-beta-cyclodextrin]
solubility [3]: exceeds 600 mg/ml
